Measurements as given in US20230151025A1, “SUBSTITUTED THIAZOLOPYRIDINES, SALTS THEREOF AND THEIR USE AS HERBICIDALLY ACTIVE SUBSTANCES” (Bayer Aktiengesellschaft, priority 2020, published 2023).

Experiments:
Assay type in all cases: in vivo
[1] = test system: Abutilon theophrasti (ABUTH); experiment: Herbicidal pre-emergence action (A), 1280 g/ha; details: visual grading after ca. 3 weeks vs untreated controls, 100% = plants have died off, 0% = as control plants
Summary of the method: (§1)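 Pre-emergence greenhouse test: seeds sown in sandy loam pots, WP or EC formulations sprayed onto covering soil as aqueous suspension/emulsion with 0.5% additive at 600 l water/ha. Damage graded visually after ca. 3 weeks versus untreated controls, 0% = as control, 100% = plants dead.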

[2] = test system: Amaranthus retroflexus (AMARE); experiment: Herbicidal pre-emergence action (A), 1280 g/ha; details: visual grading after ca. 3 weeks vs untreated controls
Summary of the method: as §1

[3] = test system: Digitaria sanguinalis (DIGSA); experiment: Herbicidal pre-emergence action (A), 1280 g/ha; details: visual grading after ca. 3 weeks vs untreated controls, 100% = plants have died off, 0% = as control plants
Summary of the method: as §1

[4] = test system: Echinochloa crus-galli (ECHCG); experiment: Herbicidal pre-emergence action (A), 1280 g/ha; details: visual grading after ca. 3 weeks vs untreated controls, 100% = plants have died off, 0% = as control plants
Summary of the method: as §1

[5] = test system: Kochia scoparia (KCHSC; Bassia scoparia); experiment: Herbicidal pre-emergence action (A), 1280 g/ha; details: visual grading after ca. 3 weeks vs untreated controls
Summary of the method: as §1

Lolium rigidum (LOLRI) [6] = experiment: Herbicidal pre-emergence action (A), 1280 g/ha; details: visual grading after ca. 3 weeks vs untreated controls, 100% = plants have died off, 0% = as control plants
Summary of the method: as §1

Poa annua (POAAN) [7] = experiment: Herbicidal pre-emergence action (A), 1280 g/ha; details: visual grading after ca. 3 weeks vs untreated controls, 100% = plants have died off, 0% = as control plants
Summary of the method: as §1

Setaria viridis (SETVI) [8] = experiment: Herbicidal pre-emergence action (A), 1280 g/ha; details: visual grading after ca. 3 weeks vs untreated controls
Summary of the method: as §1

Stellaria media (STEME) [9] = experiment: Herbicidal pre-emergence action (A), 1280 g/ha; details: visual grading after ca. 3 weeks vs untreated controls
Summary of the method: as §1

Veronica persica (VERPE) [10] = experiment: Herbicidal pre-emergence action (A), 1280 g/ha; details: visual grading after ca. 3 weeks vs untreated controls
Summary of the method: as §1

[11] = test system: Kochia scoparia (KCHSC; Bassia scoparia); experiment: Herbicidal post-emergence action (B), 1280 g/ha
Summary of the method: (§2)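 Post-emergence greenhouse test: weeds in sandy loam treated at the one-leaf stage, 2 to 3 weeks after sowing, with WP or EC formulations plus 0.5% additive at 600 l/ha water. Visual activity versus untreated controls after about 3 weeks (100% = dead, 0% = like control).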

[12] = test system: Matricaria inodora (MATIN); experiment: Herbicidal post-emergence action (B), 1280 g/ha; details: rated visually after about 3 weeks vs untreated controls
Summary of the method: as §2

Stellaria media (STEME) [13] = experiment: Herbicidal post-emergence action (B), 1280 g/ha
Summary of the method: as §2

Veronica persica (VERPE) [14] = experiment: Herbicidal post-emergence action (B), 1280 g/ha
Summary of the method: as §2

[15] = test system: Alopecurus myosuroides (ALOMY); experiment: Herbicidal pre-emergence action (A), 1280 g/ha; details: visual grading after ca. 3 weeks vs untreated controls, 100% = plants have died off, 0% = as control plants
Summary of the method: as §1

[16] = test system: Matricaria inodora (MATIN); experiment: Herbicidal pre-emergence action (A), 1280 g/ha; details: visual grading after ca. 3 weeks vs untreated controls
Summary of the method: as §1

[17] = test system: Abutilon theophrasti (ABUTH); experiment: Herbicidal post-emergence action (B), 1280 g/ha; details: rated visually after about 3 weeks vs untreated controls
Summary of the method: as §2

[18] = test system: Alopecurus myosuroides (ALOMY); experiment: Herbicidal post-emergence action (B), 1280 g/ha; details: rated visually after about 3 weeks vs untreated controls
Summary of the method: as §2

[19] = test system: Amaranthus retroflexus (AMARE); experiment: Herbicidal post-emergence action (B), 1280 g/ha; details: rated visually after about 3 weeks vs untreated controls
Summary of the method: as §2

[20] = test system: Echinochloa crus-galli (ECHCG); experiment: Herbicidal post-emergence action (B), 1280 g/ha; details: rated visually after about 3 weeks vs untreated controls
Summary of the method: as §2

Setaria viridis (SETVI) [21] = experiment: Herbicidal post-emergence action (B), 1280 g/ha; details: rated visually after about 3 weeks vs untreated controls
Summary of the method: as §2

[22] = test system: Alopecurus myosuroides (ALOMY); experiment: Herbicidal pre-emergence action (C), 320 g/ha; details: ca. 3 weeks
Source text: (§3) ABUTH: Abutilon theophrasti AGSTE: Agrostis tenuis ALOMY: Alopecurus myosuroides AMARE Amaranthus retroflexus DIGSA: Digitaria sanguinalis ECHCG: Echinochloa crus-galli KCHSC: Kochia scoparia LOLRI: Lolium rigidum MATIN: Matricaria inodora POAAN: Poa annua POLCO: Polygonum convolvulus SETVI: Setaria viridis STEME: Stellaria media VERPE: Veronica persica VIOTR: Viola tricolor
(§4) Seeds of mono- and dicotyledonous weed plants and crop plants were sown, in plastic or organic planting pots, in sandy loam and covered with soil. The compounds according to the invention, formulated in the form of wettable powders (WP) or as emulsifiable concentrates (EC), were applied to the surface of the covering soil as aqueous suspension or emulsion, with the addition of 0.5% of an additive, at an application rate of 600 l of water/ha (converted).
(§5) Following treatment, the pots were placed in a greenhouse and kept under optimum growth conditions for the test plants. The visual grading of the damage to the test plants was carried out after ca. 3 weeks in comparison to untreated controls (herbicidal effect in percent (%): 100% effect=plants have died off, 0% effect=as control plants).
(§6) Tables C1 to C13 below show the effects of selected compounds of the general formula (I) according to table 1 on various harmful plants and an application rate corresponding to 320 g/ha obtained by the experimental procedure mentioned above.

[23] = test system: Amaranthus retroflexus (AMARE); experiment: Herbicidal pre-emergence action (C), 320 g/ha; details: ca. 3 weeks
Source text: as §3, §4, §5, §6

[24] = test system: Echinochloa crus-galli (ECHCG); experiment: Herbicidal pre-emergence action (C), 320 g/ha; details: ca. 3 weeks
Source text: as §3, §4, §5, §6

Lolium rigidum (LOLRI) [25] = experiment: Herbicidal pre-emergence action (C), 320 g/ha; details: ca. 3 weeks
Source text: as §3, §4, §5, §6

[26] = test system: Matricaria inodora (MATIN); experiment: Herbicidal pre-emergence action (C), 320 g/ha; details: ca. 3 weeks
Source text: as §3, §4, §5, §6

Setaria viridis (SETVI) [27] = experiment: Herbicidal pre-emergence action (C), 320 g/ha; details: ca. 3 weeks
Source text: as §3, §4, §5, §6

Veronica persica (VERPE) [28] = experiment: Herbicidal pre-emergence action (C), 320 g/ha; details: ca. 3 weeks
Source text: as §3, §4, §5, §6

Poa annua (POAAN) [29] = experiment: Herbicidal post-emergence action (B), 1280 g/ha; details: rated visually after about 3 weeks vs untreated controls
Summary of the method: as §2

[30] = test system: Echinochloa crus-galli (ECHCG); experiment: Herbicidal post-emergence action (D), 320 g/ha; details: ca. 3 weeks
Source text: as §3
(§7) Seeds of mono- and dicotyledonous weed plants and crop plants were sown, in plastic or organic planting pots, in sandy loam, covered with soil and grown in a greenhouse under controlled growth conditions. 2 to 3 weeks after sowing, the test plants were sprayed in the single-leaf stage. The compounds according to the invention, formulated in form of wettable powders (WP) or as emulsifiable concentrates (EC), were sprayed onto the green plant parts as aqueous suspension or emulsion, with the addition of 0.5% of an additive, at an application rate of 600 l of water/ha (converted). The test plants were placed in the greenhouse for ca. 3 weeks under optimum growth conditions, and then the effect of the preparations was assessed visually in comparison with untreated controls (herbicidal effect in percent (%): 100% effect=plants have died off, 0% effect=as control plants).
(§8) Tables D1 to D13 below show the effects of selected compounds of the general formula (I) according to table 1 on various harmful plants and an application rate corresponding to 320 g/ha obtained by the experimental procedure mentioned above.

[31] = test system: Amaranthus retroflexus (AMARE); experiment: Herbicidal post-emergence action (D), 320 g/ha; details: ca. 3 weeks
Source text: as §3, §7, §8

Setaria viridis (SETVI) [32] = experiment: Herbicidal post-emergence action (D), 320 g/ha; details: ca. 3 weeks
Source text: as §3, §7, §8

Veronica persica (VERPE) [33] = experiment: Herbicidal post-emergence action (D), 320 g/ha; details: ca. 3 weeks
Source text: as §3, §7, §8

| Structure (SMILES) | ABUTH, herbicidal effect in percent (%) [1] [%] | herbicidal effect AMARE [2] [%] | ECHCG, herbicidal effect in percent (%) [4] [%] | herbicidal effect KCHSC [5] [%] | LOLRI, herbicidal effect in percent (%) (Lolium rigidum (LOLRI) [6]) | POAAN, herbicidal effect in percent (%) (Poa annua (POAAN) [7]) | herbicidal effect SETVI (Setaria viridis (SETVI) [8]) [%] | herbicidal effect STEME (Stellaria media (STEME) [9]) [%] | herbicidal effect VERPE (Veronica persica (VERPE) [10]) [%] | herbicidal effect KCHSC [11] [%] | herbicidal effect VERPE (Veronica persica (VERPE) [14]) [%] | ALOMY, herbicidal effect in percent (%) [15] [%] | herbicidal effect MATIN [16] [%] | herbicidal activity ALOMY [18] [%] | herbicidal effect ALOMY [22] [%] | herbicidal effect AMARE [23] [%] | herbicidal effect ECHCG [24] [%] | herbicidal effect LOLRI (Lolium rigidum (LOLRI) [25]) [%] | herbicidal effect MATIN [26] [%] | herbicidal effect SETVI (Setaria viridis (SETVI) [27]) [%] | also measured |
| --- | --- | --- | --- | --- | --- | --- | --- | --- | --- | --- | --- | --- | --- | --- | --- | --- | --- | --- | --- | --- | --- |
| Cc1cc2scnc2nc1-c1ccccc1C(F)(F)F [Example I-064] | 90 | 100 | 100 | 100 | 100 | 100 | 100 | 100 | 90 | 100 | 90 |  |  |  |  |  |  |  |  |  | DIGSA, herbicidal effect in percent (%) [3]: 100%; herbicidal activity MATIN [12]: 100%; herbicidal effect STEME (Stellaria media (STEME) [13]): 100% |
| Fc1cccc(-c2nc3ncsc3cc2Cl)c1F [Example I-114] | 90 | 90 | 100 | 90 | 100 | 100 | 100 | 90 | 100 | 90 | 90 | 100 | 90 | 90 | 90 | 90 | 100 | 100 | 80 | 90 | herbicidal activity ABUTH [17]: 90%; herbicidal activity AMARE [19]: 90%; herbicidal activity ECHCG [20]: 90%; herbicidal activity SETVI (Setaria viridis (SETVI) [21]): 90%; herbicidal effect VERPE (Veronica persica (VERPE) [28]): 80% |
| Cc1sccc1-c1nc2ncsc2cc1Br [Example I-135] |  | 90 | 100 | 90 | 100 | 100 | 100 | 90 | 90 | 90 | 90 | 90 | 100 | 90 | 100 | 90 | 100 | 100 | 80 | 100 | herbicidal activity AMARE [19]: 90%; herbicidal activity MATIN [12]: 90%; herbicidal activity POAAN (Poa annua (POAAN) [29]): 90%; herbicidal effect VERPE (Veronica persica (VERPE) [28]): 80%; herbicidal effect ECHCG [30]: 80% |
| Clc1cc2scnc2nc1-c1ccsc1Cl [Example I-190] | 90 | 90 | 100 | 90 | 100 | 100 | 100 | 90 | 90 | 90 | 100 | 100 | 100 | 100 | 100 | 90 | 100 | 100 | 80 | 100 | herbicidal activity ECHCG [20]: 100%; herbicidal activity POAAN (Poa annua (POAAN) [29]): 100%; herbicidal effect STEME (Stellaria media (STEME) [13]): 90%; herbicidal effect AMARE [31]: 80%; herbicidal effect ECHCG [30]: 90%; herbicidal effect SETVI (Setaria viridis (SETVI) [32]): 80%; herbicidal effect VERPE (Veronica persica (VERPE) [33]): 80% |
